Measurements: US20030166005A1, “Test system for determining the activity of cyclo-nucleotide-dependent protein kinases and vasp phosphatases” (priority 2000, published 2003)

Legend:
cGK [1] = target: T1, cGK (Homo sapiens, UniProt Q13976); assay: biochemical
T1 sequence (Q13976 1-671): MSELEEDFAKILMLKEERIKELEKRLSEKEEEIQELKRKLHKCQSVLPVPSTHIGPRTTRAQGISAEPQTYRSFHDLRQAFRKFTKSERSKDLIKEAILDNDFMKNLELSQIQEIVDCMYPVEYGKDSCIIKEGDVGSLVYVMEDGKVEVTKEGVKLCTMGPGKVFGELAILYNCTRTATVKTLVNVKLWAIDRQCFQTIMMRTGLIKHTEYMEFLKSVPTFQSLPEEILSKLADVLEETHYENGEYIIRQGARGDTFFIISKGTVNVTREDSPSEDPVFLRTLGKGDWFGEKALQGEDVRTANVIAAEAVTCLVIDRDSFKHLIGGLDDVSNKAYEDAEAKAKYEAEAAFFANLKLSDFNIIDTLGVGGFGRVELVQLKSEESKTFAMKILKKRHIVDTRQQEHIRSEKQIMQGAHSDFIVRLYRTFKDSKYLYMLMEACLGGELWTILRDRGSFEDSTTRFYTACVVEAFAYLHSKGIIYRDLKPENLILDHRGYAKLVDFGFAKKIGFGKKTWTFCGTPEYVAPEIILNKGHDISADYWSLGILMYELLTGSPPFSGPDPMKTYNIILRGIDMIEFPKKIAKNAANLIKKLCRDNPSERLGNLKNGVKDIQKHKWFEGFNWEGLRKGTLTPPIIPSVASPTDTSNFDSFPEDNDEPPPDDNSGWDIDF
Protocol: Instead of carrying out a kinase reaction for the purpose of establishing and optimizing the detection system, a synthetic phosphopeptide (phosphorylated version of the VASP substrate peptide) was used as the “reaction product” and was quantified using a detection mix. In order to ascertain the linear measurement range, different mixtures of unphosphorylated peptide and phosphopeptide were prepared. When so doing, the total concentration of peptide was kept constant at 500 nmol/l. 50 μl of these mixtures were added to the wells of a 96-well microtest plate and in each case treated with 200 μl of a detection mix which contained the following reagents diluted in PBS:
The time-resolved FRET signal, when exciting the europium fluorescence at 340 nm and measuring the emission of the APC fluorescence at 660 nm, was measured, after incubating at 20° C. for 1 hour, using a PerkinElmer Wallac fluorescence-measuring instrument (Victor^2).
After the tubes had been preincubated at 30° C. for 5 minutes, the kinase reaction was started with 50 μmol of ATP/l, with subsequent incubation being at 30° C. All the above-mentioned concentrations are to be understood as meaning final concentrations in a volume of 500 μl. […] The phosphorylated substrate peptide was detected, as described in Example 1, in the wells of a 384-well microtest plate. […]

cGK [2] = target: T1, cGK; assay: Influence of DMSO on the enzyme activity in the test system; format: biochemical; details: for Enzyme activity in cps/min: incubation period 10 min
Protocol: Most substances which are tested in an HTS are preferably dissolved in DMSO. However, many enzymes or test systems are very sensitive to DMSO. In order to determine the influence of DMSO on the test system according to the invention, phosphorylation kinetics, as described in Example 2 (cf. FIG. 2), were carried out in the presence of 0, 5, 10, 15 and 20% DMSO.

An EC50 (cGK [1]) of 100 nM was found for `Nc1nc(=O)c2nc(Sc3ccc(Cl)cc3)n([C@@H]3O[C@@H]4COP(=O)(O)O[C@H]4[C@H]3O)c2[nH]1` [8-pCPT-cGMP] in this work.
For `C[S+](C)[O-]` [DMSO, dimethyl sulfoxide], the “Enzyme activity in cps/min” value (cGK [2]; 5 percent by volume of DMSO) was 2282 cps/min, the “Enzyme activity in cps/min” value (cGK [2]; 10 percent by volume of DMSO) was 2253 cps/min and the “Enzyme activity in cps/min” value (cGK [2]; 15 percent by volume of DMSO) was 2218 cps/min. The “Enzyme activity in cps/min” value (cGK [2]; 20 percent by volume of DMSO) was 1988 cps/min and the “influence on the reaction” value (cGK [2]; up to 20 percent by volume of DMSO) was “no significant influence”.
